Experimental findings from patent US6204293A, “Inhibitors of protein isoprenyl transferases” (University of Pittsburgh, priority 1998, dated 2001) are described below.

The term % inhibition denotes how much of the control response was suppressed. For orientation: inhibition means the change of the read-out against control, counted positive when it falls.

Counter-ions that a name gives are not always drawn.

The target in one test is T1, Rat brain protein farnesyltransferase (Rattus norvegicus, UniProt Q02293+Q04631).
T1 construct: Rat brain protein farnesyltransferase activity is measured; from tissue; host or cells: rat brain
T1 sequence (Q02293 whole entry, one chain of several): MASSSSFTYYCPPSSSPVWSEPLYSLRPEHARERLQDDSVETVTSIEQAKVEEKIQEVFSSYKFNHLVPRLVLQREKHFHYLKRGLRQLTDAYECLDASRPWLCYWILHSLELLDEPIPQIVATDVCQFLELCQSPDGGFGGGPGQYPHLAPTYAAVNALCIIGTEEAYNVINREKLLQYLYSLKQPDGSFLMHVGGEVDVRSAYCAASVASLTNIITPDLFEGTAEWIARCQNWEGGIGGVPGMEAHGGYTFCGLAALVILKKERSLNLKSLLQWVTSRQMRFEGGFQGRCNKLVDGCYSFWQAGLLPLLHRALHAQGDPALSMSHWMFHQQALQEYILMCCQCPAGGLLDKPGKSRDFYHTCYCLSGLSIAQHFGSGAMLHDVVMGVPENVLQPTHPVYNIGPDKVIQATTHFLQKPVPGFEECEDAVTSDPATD
Nature of the test: % inhibition of farnesylation, scintillation proximity assay with biotin-K Ras B fragment. The test is classed as biochemical. Conditions: Table 2; 1 × 10^-6 M. In a few lines: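 Scintillation proximity read-out of farnesylation, using a biotinylated K Ras B fragment (0.1 mM final) in place of biotin-lamin. Enzyme purified from rat brain; results given as % inhibition.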
For orientation: Scintillation proximity formats need no separation of bound from free tracer.
For `CSCC[C@H](NC(=O)c1ccc(CNc2ccc(N3CCCCC3)cc2)cc1-c1ccccc1C)C(=O)O` [Example 862], the “% inhibition at 1 × 10^-6 M” value is reported as 95%.

On to `CSCC[C@H](NC(=O)c1ccc(CN2CCN(C(=O)OC(C)(C)C)CC2)cc1-c1ccccc1C)C(=O)O` [Example 866], for which the “% inhibition at 1 × 10^-6 M” value is 62%.

With `CSCC[C@H](NC(=O)c1ccc(CN2CCN(c3ccccc3)CC2)cc1-c1ccccc1C)C(=O)O` [Example 867], the “% inhibition at 1 × 10^-6 M” value is listed as 71%. `CSCC[C@H](NC(=O)c1ccc(CN(Cc2cncs2)S(C)(=O)=O)cc1-c1ccccc1C)C(=O)O` [Example 878]: the “% inhibition at 1 × 10^-6 M” value amounted to 95%. Regarding `CSCC[C@H](NC(=O)c1ccc(CN(C(=O)OC(C)(C)C)C(CC2CCCCC2)CC2CCCCC2)cc1-c1ccccc1C)C(=O)O` [Example 886], the “% inhibition at 1 × 10^-6 M” value worked out at 35%.

The same test, now with this note: Table 3; 1 × 10^-7 M.
Regarding `CSCC[C@H](NC(=O)c1ccc(/C=C/c2ccc(Oc3ccccc3Cl)cc2)cc1-c1ccccc1C)C(=O)O` [Example 854], the “% inhibition at 1 × 10^-7 M” value came to 78%. `CSCC[C@H](NC(=O)c1ccc(CCc2ccc(Oc3ccccc3Cl)cc2)cc1-c1ccccc1C)C(=O)O` [Example 855]: the “% inhibition at 1 × 10^-7 M” value is 92%. Take `CSCC[C@H](NC(=O)c1ccc(/C=C/c2ccc(Oc3ccccc3[N+](=O)[O-])cc2)cc1-c1ccccc1C)C(=O)O` [Example 856]: the “% inhibition at 1 × 10^-7 M” value stood at 97%. For the molecule `CSCC[C@H](NC(=O)c1ccc(CCc2ccc(Oc3ccccc3N)cc2)cc1-c1ccccc1C)C(=O)O` [Example 857], the “% inhibition at 1 × 10^-7 M” value was found to be 92%. Take `CSCC[C@H](NC(=O)c1ccc(CCc2ccc(Oc3cccc(Cl)c3)cc2)cc1-c1ccccc1C)C(=O)O` [Example 859]: the “% inhibition at 1 × 10^-7 M” value is 86%.

On to `CSCC[C@H](NC(=O)c1ccc(/C=C/c2ccc(Oc3cccc([N+](=O)[O-])c3)cc2)cc1-c1ccccc1C)C(=O)O` [Example 861], for which the “% inhibition at 1 × 10^-7 M” value turned out to be 65%. In the case of `CSCC[C@H](NC(=O)c1ccc(CNc2ccc(N3CCOCC3)cc2)cc1-c1ccccc1C)C(=O)O` [Example 863], the “% inhibition at 1 × 10^-7 M” value was 72%. Take `CSCC[C@H](NC(=O)c1ccc(CNc2ccc(Oc3ccccc3)cc2)cc1-c1ccccc1C)C(=O)O` [Example 864]: the “% inhibition at 1 × 10^-7 M” value worked out at 84%.

The test is the same for the next values; noted with them: Table 4; 1 × 10^-8 M.
With `CSCC[C@H](NC(=O)c1ccc(CN(Cc2ccccc2)c2ccc(SC)cc2)cc1-c1ccccc1C)C(=O)[O-].[Li+]` [Example 852], the “% inhibition at 1 × 10^-8 M” value was found to be 79%. For `CSCC[C@H](NC(=O)c1ccc(CN(Cc2ccccc2)c2ccc(C(F)(F)F)cc2)cc1-c1ccccc1C)C(=O)O` [Example 853], the “% inhibition at 1 × 10^-8 M” value is on record as 85%. Consider `CSCC[C@H](NC(=O)c1ccc(/C=C/c2ccc(Oc3cccc(Cl)c3)cc2)cc1-c1ccccc1C)C(=O)O` [Example 858], for which the “% inhibition at 1 × 10^-8 M” value stood at 60%. On the same count and under the same terms, as for `CSCC[C@H](NC(=O)c1ccc(CCc2ccc(Oc3ccc(Cl)cc3)cc2)cc1-c1ccccc1C)C(=O)O` [Example 860], the figure is 85%; as for `CSCC[C@H](NC(=O)c1ccc(CN(Cc2cncs2)S(=O)(=O)c2ccc(C)cc2)cc1-c1ccccc1C)C(=O)O` [Example 877], 68%. `CSCC[C@H](NC(=O)c1ccc(CN(CCC2CCCCC2)C2CC2)cc1-c1ccccc1C)C(=O)O` [Example 880]: the “% inhibition at 1 × 10^-8 M” value is recorded as 95%. Take `CSCC[C@H](NC(=O)c1ccc(CN(Cc2cncs2)C2CCSCC2)cc1-c1ccccc1C)C(=O)O` [Example 881]: the “% inhibition at 1 × 10^-8 M” value turned out to be 69%. Consider `CSCC[C@H](NC(=O)c1ccc(CN[C@@H](CC2CCCCC2)C(=O)N2CCCCC2)cc1-c1ccccc1C)C(=O)O` [Example 887], for which the “% inhibition at 1 × 10^-8 M” value turned out to be 92%. As for `CSCC[C@H](NC(=O)c1ccc(CON=C(Cc2ccccc2)Cc2ccccc2)cc1-c1ccccc1C)C(=O)O` [Example 888], the “% inhibition at 1 × 10^-8 M” value amounted to 86%.

Staying with this test, now noted: read-out: % inhibition at 1 × 10^-6 M.
In the case of `CSCC[C@H](NC(=O)c1ccc(COCc2ccc(-c3ccc(F)cc3)o2)cc1-c1cccc2ccccc12)C(=O)O` [Example 868, N-[4-(5-(4-fluorophenyl)furan-2-ylmethoxymethyl)-2-naphth-1-ylbenzoyl]methionine lithium salt], the inhibition at 1 µM came to 89%. As to `CSCC[C@H](NC(=O)c1ccc(OCCCc2ccccc2)cc1-c1ccccc1C)C(=O)O` [Example 879, N-[4-(3-phenylpropoxy)-2-(2-methylphenyl)benzoyl]methionine, lithium salt], the inhibition at 1 µM was 95%.

The same test, now with this note: read-out: % inhibition at 1 × 10^-6 M; Table 2; 1 × 10^-6 M.
Turning to `CSCC[C@H](NC(=O)c1ccc(COCc2ccc(-c3ccc(F)cc3)o2)cc1-c1ccccc1C(F)(F)F)C(=O)O` [Example 872, N-[4-(5-(4-fluorophenyl)furan-2-ylmethoxymethyl)-2-(2-trifluoromethylphenyl)benzoyl]methionine Lithium salt], the inhibition at 1 µM was determined as 74%. The same measure, in the same setting: under `CSCC[C@H](NC(=O)c1ccc(COCC(CC2CCCCC2)CC2CCCCC2)cc1-c1ccccc1C)C(=O)O` [Example 889, lithium salt] stands 95%.

The same test, now with this note: read-out: % inhibition at 1 × 10^-7 M.
On to `CSCC[C@H](NC(=O)c1ccc(COCc2ccc(-c3ccc(F)cc3)o2)cc1-c1ccc(F)cc1Cl)C(=O)O` [Example 869, N-[4-(5-(4-fluorophenyl)furan-2-ylmethoxymethyl)-2-(2-chloro-4-fluorophenyl)benzoyl]methionine lithium salt], for which the inhibition at 0.1 µM is 92%. Turning to `CSCC[C@H](NC(=O)c1ccc(COCc2cnco2)cc1-c1ccccc1C)C(=O)O` [Example 891, N-[4-(oxazol-5-ylmethoxymethyl)-2-(2-methylphenyl)benzoyl]methionine lithium salt], the inhibition at 0.1 µM is 94%. Same read-out and setting: under `CSCC[C@H](NC(=O)c1ccc(COCc2cnc(-c3cccc(Cl)c3)o2)cc1-c1ccccc1C)C(=O)O` [Example 893, N-[4-(2-(3-chlorophenyl)oxazol-5-ylmethoxymethyl)-2-(2-methylphenyl)benzoyl]methionine lithium salt] stands 87%; under `CSCC[C@H](NC(=O)c1ccc(COCc2cnc(-c3ccc(Cl)cc3)o2)cc1-c1ccccc1C)C(=O)O` [Example 894, N-[4-(2-(4-chlorophenyl)oxazol-5-ylmethoxymethyl)-2-(2-methylphenyl)benzoyl]methionine lithium salt], 89%. Take `CSCC[C@H](NC(=O)c1ccc(COCc2cnc(C(C)(C)C)s2)cc1-c1ccccc1C)C(=O)O` [Example 895, N-[4-(2-t-butylthiazol-5-ylmethoxymethyl)-2-(2-methylphenyl)benzoyl]methionine lithium salt]: the inhibition at 0.1 µM stood at 92%.

The same test, now with this note: read-out: % inhibition at 1 × 10^-7 M; Table 3; 1 × 10^-7 M.
For `COc1ncc(COCc2ccc(C(=O)N[C@@H](CCSC)C(=O)O)c(-c3ccccc3C)c2)s1` [Example 896, N-[4-(2-methoxythiazol-5-ylmethoxymethyl)-2-(2-methylphenylbenzoyl]methioninelithium salt], the inhibition at 0.1 µM is 96%. For the molecule `CSCC[C@H](NC(=O)c1ccc(COCc2cnc(-c3ccc(F)cc3)s2)cc1-c1ccccc1C)C(=O)O` [Example 900, N-[4-(2-(4-fluorophenylthiazol-5-ylmethoxymethyl)-2-(2-methylphenyl)benzoyl]methioninelithium salt], the inhibition at 0.1 µM is 95%.

The same test, now with this note: read-out: % inhibition at 1 × 10^-8 M.
As for `CSCC[C@H](NC(=O)c1ccc(COCc2cnc(-c3ccccc3Cl)o2)cc1-c1ccccc1C)C(=O)O` [Example 892, N-[4-(2-(2-chlorophenyl)oxazol-5-ylmethoxymethyl)-2-(2-methylphenyl)benzoyl]methionine lithium salt], the inhibition at 0.01 µM came out at 59%. As to `CSCC[C@H](NC(=O)c1ccc(COCc2cnc(-c3ccccc3Cl)s2)cc1-c1ccccc1C)C(=O)O` [Example 897, N-[4-(2-(2-chlorophenyl)thiazol-5-ylmethoxymethyl)-2-(2-methylphenyl)benzoyl]methionine lithium salt], the inhibition at 0.01 µM was 76%. Regarding `CSCC[C@H](NC(=O)c1ccc(COCc2cnc(-c3cccc(F)c3)s2)cc1-c1ccccc1C)C(=O)O` [Example 898, N-[4-(2-(3-fluorophenyl)thiazol-5-ylmethoxymethyl)-2-(2-methylphenyl)benzoyl]methionine lithium salt], the inhibition at 0.01 µM was found to be 82%. As for `CSCC[C@H](NC(=O)c1ccc(COCc2cnc(-c3cccc(Cl)c3)s2)cc1-c1ccccc1C)C(=O)O` [Example 899, N-[4-(2-(3-chlorophenyl)thiazol-5-ylmethoxymethyl)-2-(2-methylphenyl)benzoyl]methionine lithium salt], the inhibition at 0.01 µM was determined as 88%.

Still in this test, the particulars now being: read-out: % inhibition at 1 × 10^-8 M; Table 4; 1 × 10^-8 M.
With `CSCC[C@H](NC(=O)c1ccc(CO[C@H](CSC)CC2CCCCC2)cc1-c1ccccc1C)C(=O)O` [Example 882, N-[4-(3-Cyclohexyl-1-methylthiopropan-2-yl)oxymethyl-2-(2-methylphenyl)benzoyl]methionine lithium salt], the inhibition at 0.01 µM was 79%. As for `CSCC[C@H](NC(=O)c1ccc(CO[C@H](CSC(C)(C)C)CC2CCCCC2)cc1-c1ccccc1C)C(=O)O` [Example 883, N-[4-(3-Cyclohexyl-1-t-butylthiopropan-2-yl)oxymethyl-2-(2-methylphenyl)benzoyl]methionine lithium salt], the inhibition at 0.01 µM was found to be 91%. Same read-out and setting: as for `CSCC[C@H](NC(=O)c1ccc(CO[C@H](CSc2ccccc2)CC2CCCCC2)cc1-c1ccccc1C)C(=O)O` [Example 884, N-[4-(3-Cyclohexyl-1-phenylthiopropan-2-yl)oxymethyl-2-(2-methylphenyl)benzoyl]methionine lithium salt], the figure is 94%. As for `CSCC[C@H](NC(=O)c1ccc(CO[C@@H](CC2CCCCC2)CN2CCOCC2)cc1-c1ccccc1C)C(=O)O` [Example 885, N-[4-(3-Cyclohexyl-1-morpholin-4-ylpropan-2-yl)oxymethyl-2-(2-methylphenyl)benzoyl]methionine trifluoroacetate salt], the inhibition at 0.01 µM worked out at 95%.
